From patent publication US10617693B2, “Methods of treating and/or preventing actinic keratosis” (Athenex, Inc., priority 2017, dated 2020)

Test system: subjects with AK on the face or scalp
Assay: Phase 2a study KX01-AK-002: local skin reactions (grade 0 not present to 4 worst) and adverse events, 0.5 mg KX-01 on 25 cm^2
Assay type: in vivo, human
Description: An ongoing Phase 2a, open-label, multicenter, activity and safety study of KX-01 administered topically in subjects with AK on the face or scalp is described herein. […] Secondary objectives are to assess the activity of KX-01 administered topically during Days 1-57 based on reduction of AK lesion counts from baseline, assess the safety and tolerability and pharmacokinetics, and contrast the dose regimens (5-day treatment with 3-day treatment) in terms of activity and safety in subjects with AK on the face or scalp. This uncontrolled, nonrandomized trial is being conducted at 16 investigational sites in the United States. Enrollment is sequential for 2 cohorts of approximately 80 subjects each. Enrollment is closed for Cohort 1 and ongoing for Cohort 2. The two treatment cohorts are summarized below: • Cohort 1: 0.5 mg KX-01 administered topically to a contiguous treatment area of 25 cm^2 with 4-8 clinically typical AK lesions for 5 consecutive days • Cohort 2: 0.5 mg KX-01 administered topically to a contiguous treatment area of 25 cm^2 with 4-8 clinically typical AK lesions for 3 consecutive days
0.5 mg KX-01 is administered topically to an area of 25 cm^2 on the face or scalp by site staff on treatment days. […] AK lesion counts are recorded at baseline, days 8, 15, 29, and 57. […] Standardized photography of treatment area is performed at baseline, day 8 and day 57. Plasma samples are being collected at preplanned time points on days 1 and 5 for Cohort 1, and on days 1 and 3 for Cohort 2.
Absence or presence of hyperpigmentation, hypopigmentation and scarring are also assessed. Application site reactions not classified as LSRs are reported as AEs. […] LSRs and AEs are reported separately. All LSRs, pigmentation, and scarring in the treatment area will be followed to resolution or stabilization.
The range of possible composite scores is 0-24.
The Phase 2a trial described in Example 2a was completed with 84 eligible subjects enrolled in each of two cohorts: one cohort was subjected to the treatment for 5 consecutive days, and the other cohort was subjected to the treatment for 3 consecutive days. The results are described below and in FIG. 5.

## O=C(Cc1ccc(-c2ccc(OCCN3CCOCC3)cc2)cn1)NCc1ccccc1 [KX-01]
3-day, N = 84
  Crusting maximal post-baseline grade 0, subjects (%): 58 (69%)
  Crusting maximal post-baseline grade 1, subjects (%): 16 (19%)
  Crusting maximal post-baseline grade 2, subjects (%): 9 (11%)
  Crusting maximal post-baseline grade 3, subjects (%): 1 (1%)
  Crusting maximal post-baseline grade 4, subjects (%): 0 (0%)
  Erosion/Ulceration maximal post-baseline grade 0, subjects (%): 79 (94%)
  Erosion/Ulceration maximal post-baseline grade 1, subjects (%): 5 (6%)
  Erosion/Ulceration maximal post-baseline grade 2, subjects (%): 0 (0%)
  Erosion/Ulceration maximal post-baseline grade 3, subjects (%): 0 (0%)
  Erosion/Ulceration maximal post-baseline grade 4, subjects (%): 0 (0%)
  Erythema maximal post-baseline grade 0, subjects (%): 30 (36%)
  Erythema maximal post-baseline grade 1, subjects (%): 22 (26%)
  Erythema maximal post-baseline grade 2, subjects (%): 26 (31%)
  Erythema maximal post-baseline grade 3, subjects (%): 6 (7%)
  Erythema maximal post-baseline grade 4, subjects (%): 0 (0%)
  Flaking/Scaling maximal post-baseline grade 0, subjects (%): 39 (46%)
  Flaking/Scaling maximal post-baseline grade 1, subjects (%): 18 (21%)
  Flaking/Scaling maximal post-baseline grade 2, subjects (%): 19 (23%)
  Flaking/Scaling maximal post-baseline grade 3, subjects (%): 8 (10%)
  Flaking/Scaling maximal post-baseline grade 4, subjects (%): 0 (0%)
  Swelling maximal post-baseline grade 0, subjects (%): 76 (90%)
  Swelling maximal post-baseline grade 1, subjects (%): 8 (10%)
  Swelling maximal post-baseline grade 2, subjects (%): 0 (0%)
  Swelling maximal post-baseline grade 3, subjects (%): 0 (0%)
  Swelling maximal post-baseline grade 4, subjects (%): 0 (0%)
  Vesiculation/Pustulation maximal post-baseline grade 0, subjects (%): 83 (99%)
  Vesiculation/Pustulation maximal post-baseline grade 1, subjects (%): 0 (0%)
  Vesiculation/Pustulation maximal post-baseline grade 2, subjects (%): 1 (1%)
  Vesiculation/Pustulation maximal post-baseline grade 3, subjects (%): 0 (0%)
  Vesiculation/Pustulation maximal post-baseline grade 4, subjects (%): 0 (0%)
5-day treatment, cross-study
  Local safety profile compared to Picato: more benign local safety profile
5-day, N = 84
  Crusting maximal post-baseline grade 0, subjects (%): 51 (61%)
  Crusting maximal post-baseline grade 1, subjects (%): 25 (30%)
  Crusting maximal post-baseline grade 2, subjects (%): 8 (10%)
  Crusting maximal post-baseline grade 3, subjects (%): 0 (0%)
  Crusting maximal post-baseline grade 4, subjects (%): 0 (0%)
  Erosion/Ulceration maximal post-baseline grade 0, subjects (%): 71 (85%)
  Erosion/Ulceration maximal post-baseline grade 1, subjects (%): 12 (14%)
  Erosion/Ulceration maximal post-baseline grade 2, subjects (%): 1 (1%)
  Erosion/Ulceration maximal post-baseline grade 3, subjects (%): 0 (0%)
  Erosion/Ulceration maximal post-baseline grade 4, subjects (%): 0 (0%)
  Erythema maximal post-baseline grade 0, subjects (%): 15 (18%)
  Erythema maximal post-baseline grade 1, subjects (%): 16 (19%)
  Erythema maximal post-baseline grade 2, subjects (%): 35 (42%)
  Erythema maximal post-baseline grade 3, subjects (%): 17 (20%)
  Erythema maximal post-baseline grade 4, subjects (%): 1 (1%)
  Flaking/Scaling maximal post-baseline grade 0, subjects (%): 33 (39%)
  Flaking/Scaling maximal post-baseline grade 1, subjects (%): 10 (12%)
  Flaking/Scaling maximal post-baseline grade 2, subjects (%): 24 (29%)
  Flaking/Scaling maximal post-baseline grade 3, subjects (%): 16 (19%)
  Flaking/Scaling maximal post-baseline grade 4, subjects (%): 1 (1%)
  Swelling maximal post-baseline grade 0, subjects (%): 66 (79%)
  Swelling maximal post-baseline grade 1, subjects (%): 16 (19%)
  Swelling maximal post-baseline grade 2, subjects (%): 1 (1%)
  Swelling maximal post-baseline grade 3, subjects (%): 1 (1%)
  Swelling maximal post-baseline grade 4, subjects (%): 0 (0%)
  Vesiculation/Pustulation maximal post-baseline grade 0, subjects (%): 80 (95%)
  Vesiculation/Pustulation maximal post-baseline grade 1, subjects (%): 4 (5%)
  Vesiculation/Pustulation maximal post-baseline grade 2, subjects (%): 0 (0%)
  Vesiculation/Pustulation maximal post-baseline grade 3, subjects (%): 0 (0%)
  Vesiculation/Pustulation maximal post-baseline grade 4, subjects (%): 0 (0%)
5-day, interim N = 67
  Crusting maximal post-baseline grade 0, subjects (%): 41 (61%)
  Crusting maximal post-baseline grade 1, subjects (%): 20 (30%)
  Crusting maximal post-baseline grade 2, subjects (%): 6 (9%)
  Crusting maximal post-baseline grade 3, subjects (%): 0 (0%)
  Crusting maximal post-baseline grade 4, subjects (%): 0 (0%)
  Erosion/Ulceration maximal post-baseline grade 0, subjects (%): 57 (85%)
  Erosion/Ulceration maximal post-baseline grade 1, subjects (%): 9 (13%)
  Erosion/Ulceration maximal post-baseline grade 2, subjects (%): 1 (1%)
  Erosion/Ulceration maximal post-baseline grade 3, subjects (%): 0 (0%)
  Erosion/Ulceration maximal post-baseline grade 4, subjects (%): 0 (0%)
  Erythema maximal post-baseline grade 0, subjects (%): 7 (10%)
  Erythema maximal post-baseline grade 1, subjects (%): 16 (24%)
  Erythema maximal post-baseline grade 2, subjects (%): 32 (48%)
  Erythema maximal post-baseline grade 3, subjects (%): 12 (18%)
  Erythema maximal post-baseline grade 4, subjects (%): 0 (0%)
  Flaking/Scaling maximal post-baseline grade 0, subjects (%): 20 (30%)
  Flaking/Scaling maximal post-baseline grade 1, subjects (%): 14 (21%)
  Flaking/Scaling maximal post-baseline grade 2, subjects (%): 20 (30%)
  Flaking/Scaling maximal post-baseline grade 3, subjects (%): 13 (19%)
  Flaking/Scaling maximal post-baseline grade 4, subjects (%): 0 (0%)
  Swelling maximal post-baseline grade 0, subjects (%): 53 (79%)
  Swelling maximal post-baseline grade 1, subjects (%): 12 (18%)
  Swelling maximal post-baseline grade 2, subjects (%): 1 (1%)
  Swelling maximal post-baseline grade 3, subjects (%): 1 (1%)
  Swelling maximal post-baseline grade 4, subjects (%): 0 (0%)
  Vesiculation/Pustulation maximal post-baseline grade 0, subjects (%): 64 (96%)
  Vesiculation/Pustulation maximal post-baseline grade 1, subjects (%): 3 (4%)
  Vesiculation/Pustulation maximal post-baseline grade 2, subjects (%): 0 (0%)
  Vesiculation/Pustulation maximal post-baseline grade 3, subjects (%): 0 (0%)
  Vesiculation/Pustulation maximal post-baseline grade 4, subjects (%): 0 (0%)
Cohort 1 (5-day)
  Day from which LSRs were generally observable: 3 days
Cohort 1 (5-day), 67 subjects with day 57 visit
  Subjects with erosion/ulceration: 9
